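GI50 = concentration required for 50% inhibition of growth. TGI: concentration producing complete growth inhibition.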
How the values were obtained:
Assay in all cases: NCI tumour cell line growth inhibition, 384-well format
A549 NSCLC = tested on: A549 NSCLC
HCT-15 colon = tested on: HCT-15 colon
HOP-92 NSCLC = tested on: HOP-92 NSCLC
COLO 205 colon = tested on: COLO 205 colon
HOP-62 NSCLC = tested on: HOP-62 NSCLC
SW-620 colon = tested on: SW-620 colon
NCI-H522 lung = tested on: NCI-H522 lung
UACC-257 melanoma = tested on: UACC-257 melanoma
OVCAR-4 ovarian = tested on: OVCAR-4 ovarian
BT-549 breast = tested on: BT-549 breast
ACHN renal = tested on: ACHN renal
OVCAR-5 ovarian = tested on: OVCAR-5 ovarian
SK-OV-3 ovarian = tested on: SK-OV-3 ovarian
NCI-H23 lung = tested on: NCI-H23 lung
MOLT-4 leukemia = tested on: MOLT-4 leukemia
SN12C renal = tested on: SN12C renal
MDA-MB-435 melanoma = tested on: MDA-MB-435 melanoma
NCI-H460 NSCLC = tested on: NCI-H460 NSCLC
UACC-62 melanoma = tested on: UACC-62 melanoma
RPMI-8226 leukemia = tested on: RPMI-8226 leukemia
EKVX NSCLC = tested on: EKVX NSCLC
NCI-H226 lung = tested on: NCI-H226 lung
HL-60(TB) leukemia = tested on: HL-60(TB) leukemia
SF-539 CNS = tested on: SF-539 CNS
T-47D breast = tested on: T-47D breast
TK-10 renal = tested on: TK-10 renal
A498 renal = tested on: A498 renal
IGROV1 ovarian = tested on: IGROV1 ovarian
HS 578T breast = tested on: HS 578T breast
OVCAR-3 ovarian = tested on: OVCAR-3 ovarian
M14 melanoma = tested on: M14 melanoma
SF-295 CNS = tested on: SF-295 CNS
SK-MEL-2 melanoma = tested on: SK-MEL-2 melanoma
RXF 393 renal = tested on: RXF 393 renal
SK-MEL-5 melanoma = tested on: SK-MEL-5 melanoma
PC-3 prostate = tested on: PC-3 prostate
SF-268 CNS = tested on: SF-268 CNS
CAKI-1 renal = tested on: CAKI-1 renal
SNB-19 CNS = tested on: SNB-19 CNS
MCF7 breast = tested on: MCF7 breast
MDA-MB-468 breast = tested on: MDA-MB-468 breast
HCC-2998 colon = tested on: HCC-2998 colon
SR leukemia = tested on: SR leukemia
KM12 colon = tested on: KM12 colon
MDA-MB-231 breast = tested on: MDA-MB-231 breast
786-0 renal = tested on: 786-0 renal
SNB-75 CNS = tested on: SNB-75 CNS
U251 glioblastoma = tested on: U251 glioblastoma
DU-145 prostate = tested on: DU-145 prostate
NCI-H322M lung = tested on: NCI-H322M lung
CCRF-CEM leukemia = tested on: CCRF-CEM leukemia
MALME-3M melanoma = tested on: MALME-3M melanoma
NCI/ADR-RES ovarian = tested on: NCI/ADR-RES ovarian
OVCAR-8 ovarian = tested on: OVCAR-8 ovarian
SK-MEL-28 melanoma = tested on: SK-MEL-28 melanoma
HT29 colon = tested on: HT29 colon

Cc1[nH]c(/C=C2\C(=O)Nc3ccccc32)c(C)c1CCC(=O)O
GI50 (A549 NSCLC): 29.2 µM | TGI (A549 NSCLC): 84.7 µM | GI50 (HCT-15 colon): 25.3 µM | TGI (HCT-15 colon): 59.6 µM | GI50 (HOP-92 NSCLC): 19.8 µM | TGI (HOP-92 NSCLC): 43.3 µM | GI50 (COLO 205 colon): 22.8 µM | TGI (COLO 205 colon): 38.7 µM | GI50 (HOP-62 NSCLC): 42.4 µM | TGI (HOP-62 NSCLC): > 100 µM | GI50 (SW-620 colon): 19.6 µM | TGI (SW-620 colon): 41.4 µM | GI50 (NCI-H522 lung): 21.2 µM | TGI (NCI-H522 lung): 62.1 µM | GI50 (UACC-257 melanoma): 17.7 µM | TGI (UACC-257 melanoma): 47.8 µM | GI50 (OVCAR-4 ovarian): 22.6 µM | TGI (OVCAR-4 ovarian): > 100 µM | GI50 (BT-549 breast): 18 µM | TGI (BT-549 breast): 42.3 µM | GI50 (ACHN renal): 24.6 µM | TGI (ACHN renal): 68.4 µM | GI50 (OVCAR-5 ovarian): 20.2 µM | TGI (OVCAR-5 ovarian): 55.3 µM | GI50 (SK-OV-3 ovarian): 14.3 µM | TGI (SK-OV-3 ovarian): 38.7 µM | GI50 (NCI-H23 lung): 16.6 µM | TGI (NCI-H23 lung): 40.1 µM | GI50 (MOLT-4 leukemia): 16.3 µM | TGI (MOLT-4 leukemia): 30.3 µM | GI50 (SN12C renal): 27.7 µM | TGI (SN12C renal): 89.3 µM | GI50 (MDA-MB-435 melanoma): 21.3 µM | TGI (MDA-MB-435 melanoma): 51.4 µM | GI50 (NCI-H460 NSCLC): 17.6 µM | TGI (NCI-H460 NSCLC): 34.2 µM | GI50 (UACC-62 melanoma): 25.9 µM | TGI (UACC-62 melanoma): 70.3 µM | GI50 (RPMI-8226 leukemia): 16.2 µM | TGI (RPMI-8226 leukemia): 30.5 µM | GI50 (EKVX NSCLC): 17.6 µM | TGI (EKVX NSCLC): 52.7 µM | GI50 (NCI-H226 lung): 15.3 µM | TGI (NCI-H226 lung): 34.4 µM | GI50 (HL-60(TB) leukemia): 23.9 µM | TGI (HL-60(TB) leukemia): 39.2 µM | GI50 (SF-539 CNS): 13.1 µM | TGI (SF-539 CNS): 45.4 µM | GI50 (T-47D breast): 53.7 µM | TGI (T-47D breast): > 100 µM | GI50 (TK-10 renal): 23.2 µM | TGI (TK-10 renal): 59.3 µM | GI50 (A498 renal): 29 µM | TGI (A498 renal): > 100 µM | GI50 (IGROV1 ovarian): 25.6 µM | TGI (IGROV1 ovarian): 86.5 µM | GI50 (HS 578T breast): 22.1 µM | TGI (HS 578T breast): 78.7 µM | GI50 (OVCAR-3 ovarian): 27.4 µM | TGI (OVCAR-3 ovarian): 89 µM | GI50 (M14 melanoma): 15.1 µM | TGI (M14 melanoma): 33.9 µM | GI50 (SF-295 CNS): > 100 µM | TGI (SF-295 CNS): > 100 µM | GI50 (SK-MEL-2 melanoma): 24 µM | TGI (SK-MEL-2 melanoma): 41.7 µM | GI50 (RXF 393 renal): 56 µM | TGI (RXF 393 renal): > 100 µM | GI50 (SK-MEL-5 melanoma): 17.2 µM | TGI (SK-MEL-5 melanoma): 36 µM | GI50 (PC-3 prostate): 24.6 µM | TGI (PC-3 prostate): 81.9 µM | GI50 (SF-268 CNS): 24.5 µM | TGI (SF-268 CNS): 73.9 µM | GI50 (CAKI-1 renal): 15.1 µM | TGI (CAKI-1 renal): 40.3 µM | GI50 (SNB-19 CNS): 61.7 µM | TGI (SNB-19 CNS): > 100 µM | GI50 (MCF7 breast): 39.9 µM | TGI (MCF7 breast): > 100 µM | GI50 (MDA-MB-468 breast): 16.3 µM | TGI (MDA-MB-468 breast): 32.6 µM | GI50 (HCC-2998 colon): 24.1 µM | TGI (HCC-2998 colon): 75.3 µM | GI50 (SR leukemia): 19.1 µM | TGI (SR leukemia): 33.3 µM | GI50 (KM12 colon): 4.33 µM | TGI (KM12 colon): 52.9 µM | GI50 (MDA-MB-231 breast): 16.5 µM | TGI (MDA-MB-231 breast): 53 µM | GI50 (786-0 renal): 52 µM | TGI (786-0 renal): > 100 µM | GI50 (SNB-75 CNS): 11.7 µM | TGI (SNB-75 CNS): > 100 µM | GI50 (U251 glioblastoma): 35 µM | TGI (U251 glioblastoma): > 100 µM | GI50 (DU-145 prostate): 35.4 µM | TGI (DU-145 prostate): > 100 µM | GI50 (NCI-H322M lung): 38.4 µM | TGI (NCI-H322M lung): > 100 µM | GI50 (CCRF-CEM leukemia): 18.1 µM | TGI (CCRF-CEM leukemia): 34.4 µM | GI50 (MALME-3M melanoma): 5.47 µM | TGI (MALME-3M melanoma): 23.1 µM | GI50 (NCI/ADR-RES ovarian): 31.9 µM | TGI (NCI/ADR-RES ovarian): > 100 µM | GI50 (OVCAR-8 ovarian): 32 µM | TGI (OVCAR-8 ovarian): > 100 µM | GI50 (SK-MEL-28 melanoma): 23.1 µM | TGI (SK-MEL-28 melanoma): 52.6 µM | GI50 (HT29 colon): 26 µM | TGI (HT29 colon): 67.6 µM
